For series [1], the system named is HEK293. The series is described as follows: Induction of cell surface translocation of MR1 in human HEK293 cells expressing N-terminal HiBit-tagged human beta2m/MR1 assessed as increase in MR1 cell surface expression level at 10 uM incubated for 8 hrs followed by labeling with PE-conjugated anti-hMR1 antibody by flow cytometry analysis. It is filed as functional, cell-based. (In general: HiBiT is a short tag that completes a luciferase, so light tracks the accessible tagged protein.)

In series [2] the test system is TG40 cell. The series can be described thus: Activation of mouse TG40 cells transfected with MAIT-alpha/betaTCR co-cultured with human HEK293 cells expressing N-terminal HiBit-tagged human beta2m/MR1 assessed as upregulation of CD69 surface expression on TG40 cells at 1 uM incubated for 24 hrs by flow cytometry. The format is functional, cell-based.
In series [3] the test system is TG40 cell. The series can be described thus: Activation of mouse TG40 cells transfected with MAIT-alpha/betaTCR co-cultured with human […] expressing N-terminal HiBit-tagged human beta2m/MR1 assessed as upregulation of CD69 surface expression […] at 1 uM incubated for 24 hrs by flow cytometry. The format is functional, cell-based.
The test system of series [4] is HeLa. The series can be described thus: Induction of cell surface translocation of MR1 in human HeLa overexpressing MR1 assessed as increase in MR1 cell surface levels at 10 uM incubated for 8 hrs followed by labeling with PE-conjugated anti-hMR1 antibody by flow cytometry analysis. It is filed as functional, cell-based. On the technique in general: Flow cytometry measures light scatter and fluorescence of single cells or particles in a stream.

Series [5] relates to HeLa. The series is described as follows: Induction of cell surface translocation of MR1 in human HeLa overexpressing MR1 assessed as increase in MR1 cell surface levels at 0.1 to 10 uM incubated for 8 hrs followed by labeling with PE-conjugated anti-hMR1 antibody by flow cytometry analysis. The format is functional, cell-based. As to conditions: dose 0.1-10 µM.
The subject of series [6] is TG40 cell. The series is described as follows: Activation of mouse TG40 cells transfected with MAIT-alpha/betaTCR co-cultured with human HeLa cells overexpressing human MR1 assessed as upregulation of CD69 surface expression […] at 10 uM incubated for 24 hrs by flow cytometry. The format is functional, cell-based.
Series [7] concerns TG40 cell. The series is described as follows: Activation of mouse TG40 cells transfected with MAIT-alpha/betaTCR co-cultured with human HEK293 cells expressing N-terminal HiBit-tagged human beta2m/MR1 assessed as upregulation of CD69 surface expression on TG40 cells at 10 uM incubated for 24 hrs by flow cytometry. The format is functional, cell-based.
Series [8] can be described thus: Induction of cell surface translocation of MR1 in human HeLa overexpressing MR1 assessed as increase in MR1 cell surface levels incubated for 8 hrs followed by labeling with PE-conjugated anti-hMR1 antibody by flow cytometry analysis. It is filed as functional, cell-based.
The nature of series [9]: Inhibition of 5-OR-RU induced activation of mouse TG40 cells transfected with MAIT-alpha/betaTCR co-cultured with human HeLa cells overexpressing human MR1 assessed as upregulation of CD69 surface expression […] incubated for 24 hrs by flow cytometry. The format is functional, cell-based. As to conditions: TG40 cell.
In series [10] the test system is HeLa. The series can be described thus: Cytotoxicity against human HeLa cells overexpressing MR1 assessed as reduction in cell viability at 3 to 100 uM incubated for 8 hrs by MTS assay. The format is toxicity, cell-based. As to conditions: dose 3-100 µM.
Series [11] deals with HeLa. The series can be described thus: Cytotoxicity against human HeLa cells overexpressing MR1 assessed as reduction in cell viability at 3 to 100 uM incubated for 24 hrs by MTS assay. As to conditions: dose 3-100 µM. The format is toxicity, cell-based. In general terms: Tetrazolium dyes change colour on reduction, which living cells bring about.
The nature of series [12]: Cytotoxicity against mouse TG40 cells transfected with MAIT-alpha/betaTCR assessed as reduction in cell viability at 3 to 10 uM incubated for 24 hrs by MTS assay. The format is toxicity, cell-based. As to conditions: dose 3-10 µM.
Series [13] is described as follows: Cytotoxicity against mouse TG40 cells transfected with MAIT-alpha/betaTCR assessed as reduction in cell viability at 30 to 100 uM incubated for 24 hrs by MTS assay. It is filed as toxicity, cell-based. As to conditions: dose 30-100 µM.
Series [14] deals with HeLa. The series is described as follows: Effect on MR1-specific presentation in human HeLa overexpressing MR1 assessed as increase in HLA-A/B/C cell surface levels incubated for 8 hrs followed by labeling with PE-conjugated anti-hMR1 antibody and APC-conjugated anti-HLA-A/B/C antibody by flow cytometry analysis. It is filed as functional, cell-based.

pEC50, pIC50: −log10 of the molar value. Active and inactive are the calls of the source. The rule behind the calls is not given here.

The record followed here is ChEMBL document CHEMBL5321289, “Establishment of an MR1 Presentation Reporter Screening System and Identification of Phenylpropanoid Derivatives as MR1 Ligands” (J Med Chem, 2023).

Take `CC(=O)/C=N/c1c(NC[C@H](O)[C@H](O)[C@H](O)CO)[nH]c(=O)[nH]c1=O`: the result in series [1] and in series [2] was Active. For the same compound, the outcome in [3] was inactive.

For `CC(C)=CCc1cc(/C=C/C=O)ccc1O`, in series [4], the result was inactive.

As to `CN(C)c1cc(/C=C/C=O)ccc1O`, in series [4], the outcome was inactive.

With `COc1ccccc1/C=C/C=O`, in series [4], the result was inactive.

In the case of `COc1cc(/C=C/C=O)c[nH]c1=O`, in [4], the outcome was inactive.

Regarding `COc1cc(C#C[Si](C)(C)C)c(C=O)cc1OC`, the Activity entry in series [5] is “Dose-Dependent Effect”. Moreover, the result in series [6] was inactive.

On to `COc1cc(/C=C/C=O)cc2c1OCO2`, for which the outcome in [4] was inactive.

Turning to `COc1cc(/C=C/C#N)ccc1O`, the outcome in series [4] was inactive.

What is called pEC50 is the negative decadic logarithm of the EC50, by convention in mol/L. One may read the pIC50 as the negative decadic logarithm of the IC50, by convention in mol/L. `CC(=O)Nc1nc(O)c2nc(C=O)cnc2n1`: the outcome in series [1] was Active. Besides, the outcome in [7] and in series [14] was inactive. Further, the pEC50 in series [8] is 6.82. For the same compound, the negative-log IC50 (pIC50) in [9] is 7.77. Moreover, the Activity result in series [10] is given as “Non-Toxic”; in series [11], “Non-Toxic”; in series [12], “Non-Toxic”; in [13], “Toxic”.

With `COc1cc(O)ccc1/C=C/C=O`, the result in [6] and in [14] was inactive. For the same compound, the result in series [4] was Active. Further, in series [8], the pEC50 is 5.28. Further, the pIC50 in series [9] is 5.10. Further, the Activity result is “Non-Toxic” in series [10], “Non-Toxic” in series [11], “Non-Toxic” in series [12] and “Toxic” in series [13].

For `COc1ccc(/C=C(\C)C=O)cc1`, the result in [4] was inactive.

As for `COc1cc(/C=C/C=O)c(OC)c2c1OCO2`, the outcome in series [4] was inactive.

In the case of `O=CC1=Cc2ccc(O)cc2OC1`, the result in series [4] was inactive.

On to `COc1cc(/C=C/C(C)=O)ccc1O`, for which the outcome in [4] was inactive.

Take `COc1ccc(/C=C/C=O)cc1O`: the result in series [4] was inactive.

For the compound `COc1cccc(/C=C/C=O)c1`, the outcome in series [4] was inactive.

As for `COc1cc(/C=C/C=O)ccc1O` [CONIFERYL ALDEHYDE], the Activity result in series [5] was “Dose-Dependent Effect”; in [10], “Non-Toxic”; in series [11], “Non-Toxic”; in series [12] it was “Non-Toxic”; in series [13] it was “Toxic”. Besides, the outcome in [6] and in series [14] was inactive. Further, the negative-log EC50 (pEC50) in [8] is 5.04. Besides, the pIC50 in series [9] is 4.94.

Turning to `COc1cc(I)c(C=O)cc1OC`, the Activity result in series [5] was “Dose-Dependent Effect”. Further, in [6], the outcome was inactive.

Take `COc1cc(/C=C/C=O)c(OC)cc1O`: the result in series [6] and in series [14] was inactive. The outcome in [4] was Active. The pEC50 in series [8] was 5.41. The pIC50 in series [9] was 5.13. Moreover, the Activity result in series [10] is “Non-Toxic”; in [11] it was “Non-Toxic”; in [12] it was “Non-Toxic”; in series [13] it was “Toxic”.

Turning to `Cc1ccc(/C=C/C=O)cc1`, the outcome in series [4] was inactive.

On to `O=C/C=C/c1ccccc1O`, for which the result in series [4] was inactive.

On to `COc1cc(/C=C/C=O)cc(OC)c1O`, for which the outcome in series [4] was inactive.

As for `COc1cc(C=O)ccc1O`, the outcome in [4] was inactive.

Consider `O=C/C=C/c1ccc(O)cc1`, for which, in series [4], the result was inactive.

Consider `O=Cc1c(O)cccc1I`, for which the Activity entry in [5] is “Dose-Dependent Effect”. Also, the outcome in [6] was inactive.

For the compound `COc1cc(/C=C/C(=O)O)ccc1O`, the outcome in [4] was inactive.

In the case of `CCCCCC/C(C=O)=C\c1ccccc1`, in series [4], the result was inactive.

As to `O=C/C=C/c1ccc(O)c(O)c1` [CAFFEOYL ALDEHYDE], the outcome in series [6] and in series [14] was inactive. For the same compound, the outcome in [4] was Active. Also, the negative-log EC50 (pEC50) in series [8] is 5.59. Further, the Activity result in [10] is given as “Non-Toxic”; in series [11], “Non-Toxic”; in series [12] it was “Non-Toxic”; in series [13], “Toxic”.

Take `O=Cc1ccc(O)c(C(=O)O)c1`: the outcome in series [1] was Active.

Regarding `COc1cc(CCC=O)ccc1O`, in [4], the result was inactive.

As for `COc1ccc(/C=C/C=O)cc1`, the outcome in [4] was inactive.

With `Nc1nc2ncc(C=O)nc2c(=O)[nH]1`, the pEC50 in [8] was 5.79. Besides, the pIC50 in series [9] is 6.30. Also, the Activity entry in [10] is “Non-Toxic”; in series [11], “Non-Toxic”; in series [12], “Non-Toxic”; in series [13], “Toxic”.

For the compound `CC(C)(C)c1cc(C=O)c(O)c(C=O)c1`, in series [5], the Activity entry is “Dose-Dependent Effect”. Further, the result in [6] was inactive.

For `COCCOC(=O)/C(=C\c1cc(C(C)(C)C)c(O)c(C(C)(C)C)c1)C(C)=O`, the Activity entry in series [5] was “Dose-Dependent Effect”. For the same compound, the outcome in series [6] was inactive.

With `O=C/C=C/c1ccccc1`, the outcome in series [4] was inactive.

For `COc1ccc(O)c(/C=C/C=O)c1`, the result in series [4] was inactive.

Take `COc1cc(/C=C/C=C/C=O)ccc1O`: the result in series [4] was inactive.

`O=Cc1ccccc1C#C/C=C/CO`: the Activity result in [5] is “Dose-Dependent Effect”. For the same compound, the result in series [6] was inactive.
